Results taken from patent US6737383B1, “Herbicidal oxadiazolidines” (priority 1999, dated 2004).

Columns and labels:
pigweed = assay: Test B pre/postemergence pigweed; assay type: in vivo, Amaranthus retroflexus
Summary of the method: (§1)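 Test chemicals in a non-phytotoxic solvent mixture with surfactant were sprayed preemergence onto planted seeds and postemergence onto plants 2 to 18 cm tall (1- to 4-leaf stage). After twelve to sixteen days in a greenhouse, injury was visually rated against untreated controls from 0 (no effect) to 10 (complete control).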

bedstraw = assay: Test B pre/postemergence bedstraw; assay type: in vivo, Galium aparine; conditions: scale of 0 to 10 where 0 is no effect and 10 is complete control
Summary of the method: as §1

wheat = assay: Test B pre/postemergence wheat; assay type: in vivo, Triticum aestivum
Summary of the method: as §1

soybean = assay: Test B pre/postemergence soybean; assay type: in vivo, Glycine max
Summary of the method: as §1

blackgrass = assay: Test B pre/postemergence blackgrass; assay type: in vivo, Alopecurus myosuroides
Summary of the method: as §1

surinam grass = assay: Test B pre/postemergence surinam grass; assay type: in vivo, Brachiaria decumbens
Summary of the method: as §1

cocklebur = assay: Test B pre/postemergence cocklebur; assay type: in vivo, Xanthium strumarium
Summary of the method: as §1

rape = assay: Test B pre/postemergence rape; assay type: in vivo, Brassica napus
Summary of the method: as §1

morningglory = assay: Test B pre/postemergence morningglory; assay type: in vivo, Ipomoea hederacea
Summary of the method: as §1

smallflower flatsedge = assay: Test B flood test smallflower flatsedge; assay type: in vivo, Cyperus difformis
Summary of the method: (§2)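 Read-out is a visual response score from 0 (no effect) to 10 (complete control), assigned by comparison with untreated controls. Treatment was applied at the 2-leaf stage, and plants stayed in the greenhouse for twelve to sixteen days before scoring.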

wild oat = assay: Test B pre/postemergence wild oat; assay type: in vivo, Avena fatua
Summary of the method: as §1

purple nutsedge = assay: Test B pre/postemergence purple nutsedge; assay type: in vivo, Cyperus rotundus
Summary of the method: as §1

bamyardgrass = assay: Test B flood test barnyardgrass; assay type: in vivo, Echinochloa crus-galli
Summary of the method: as §2

giant foxtail = assay: Test B pre/postemergence giant foxtail; assay type: in vivo, Setaria faberii
Summary of the method: as §1

duck salad = assay: Test B flood test duck salad; assay type: in vivo, Heteranthera limosa
Summary of the method: as §2

velvetleaf = assay: Test B pre/postemergence velvetleaf; assay type: in vivo, Abutilon theophrasti
Summary of the method: as §1

[1] = Postemergence, Rate 250 g/ha, scale 0 to 10, 0 is no effect, 10 is complete control
[2] = Postemergence, Rate 500 g/ha, scale of 0 to 10 where 0 is no effect and 10 is complete control
[3] = Preemergence, Rate 62 g/ha, scale 0 to 10 (0 no effect, 10 complete control)
[4] = Preemergence, Rate 125 g/ha, scale of 0 to 10 where 0 is no effect and 10 is complete control
[5] = Preemergence, Rate 250 g/ha, scale of 0 to 10 where 0 is no effect and 10 is complete control
[6] = Preemergence, Rate 500 g/ha, scale of 0 to 10 where 0 is no effect and 10 is complete control
[7] = Rate 62 g/ha, Postemergence, scale of 0 to 10 where 0 is no effect and 10 is complete control
[8] = Postemergence, Rate 125 g/ha, scale 0 to 10, 0 is no effect, 10 is complete control
[9] = Rate 62 g/ha, flood test species, Pre-emergence, visual evaluation after twelve to sixteen days
[10] = Rate 125 g/ha, under heading Pre-emergence, flood test species, visual evaluation after twelve to sixteen days
[11] = Rate 250 g/ha, Pre-emergence, flood-test species, scale 0 to 10, 0 is no effect, 10 is complete control
[12] = Rate 500 g/ha, Pre-emergence, flood test species, scale 0 to 10 (0 no effect, 10 complete control)

CC(C)N(C(=O)n1oc(=O)n(C(CF)CF)c1=O)c1ccc(F)cc1 [Compound 390]
Plant response rating, Redroot pigweed (pigweed; [1]): 9
Redroot pigweed plant response rating (pigweed; [2]): 9
Plant response rating, Redroot pigweed (pigweed; [3]): 8
Plant response rating, Redroot pigweed (pigweed; [4]): 9
Redroot pigweed plant response rating (pigweed; [5]): 10
Redroot pigweed plant response rating (pigweed; [6]): 10
Redroot pigweed plant response rating (pigweed; [7]): 2
Bedstraw plant response rating (bedstraw; Postemergence, Rate 500 g/ha): 7
Plant response rating, Bedstraw (bedstraw; Preemergence, Rate 125 g/ha): 0
Plant response rating, Wheat (wheat; [1]): 3
Wheat plant response rating (wheat; [2]): 7
Plant response rating, Wheat (wheat; [3]): 0
Plant response rating, Wheat (wheat; [4]): 4
Wheat plant response rating (wheat; [5]): 8
Wheat plant response rating (wheat; [6]): 9
Wheat plant response rating (wheat; [7]): 0
Plant response rating, Soybean (soybean; [1]): 3
Soybean plant response rating (soybean; [2]): 5
Plant response rating, Soybean (soybean; [3]): 0
Plant response rating, Soybean (soybean; [4]): 0
Soybean plant response rating (soybean; [5]): 2
Soybean plant response rating (soybean; [6]): 3
Soybean plant response rating (soybean; [7]): 2
Plant response rating, Blackgrass (blackgrass; [1]): 9
Blackgrass plant response rating (blackgrass; [2]): 9
Plant response rating, Blackgrass (blackgrass; [3]): 6
Plant response rating, Blackgrass (blackgrass; [4]): 9
Blackgrass plant response rating (blackgrass; [5]): 9
Blackgrass plant response rating (blackgrass; [6]): 10
Blackgrass plant response rating (blackgrass; [7]): 8
Plant response rating, B. signalgrass (surinam grass; [8]): 5
Plant response rating, B. signalgrass (surinam grass; [1]): 5
B. signalgrass plant response rating (surinam grass; [2]): 8
Plant response rating, B. signalgrass (surinam grass; [3]): 1
Plant response rating, B. signalgrass (surinam grass; [4]): 5
B. signalgrass plant response rating (surinam grass; [5]): 9
B. signalgrass plant response rating (surinam grass; [6]): 10
B. signalgrass plant response rating (surinam grass; [7]): 2
Plant response rating, Cocklebur (cocklebur; [8]): 0
Plant response rating, Cocklebur (cocklebur; [1]): 3
Cocklebur plant response rating (cocklebur; [2]): 7
Plant response rating, Cocklebur (cocklebur; [3]): 0
Plant response rating, Cocklebur (cocklebur; [4]): 0
Cocklebur plant response rating (cocklebur; [5]): 2
Cocklebur plant response rating (cocklebur; [7]): 0
Plant response rating, Rape (rape; [1]): 10
Rape plant response rating (rape; [2]): 10
Plant response rating, Rape (rape; [3]): 0
Plant response rating, Rape (rape; [4]): 2
Rape plant response rating (rape; [5]): 8
Rape plant response rating (rape; [6]): 8
Rape plant response rating (rape; [7]): 7
Plant response rating, Morningglory (morningglory; [1]): 7
Morningglory plant response rating (morningglory; [2]): 9
Plant response rating, Morningglory (morningglory; [3]): 0
Plant response rating, Morningglory (morningglory; [4]): 3
Morningglory plant response rating (morningglory; [5]): 6
Morningglory plant response rating (morningglory; [6]): 7
Morningglory plant response rating (morningglory; [7]): 2
Plant response rating, S. Flatsedge (0 to 10 scale, 0 is no effect, 10 is complete control) (smallflower flatsedge; [9]): 0
S. Flatsedge plant response rating (0 to 10 scale, 0 is no effect, 10 is complete control) (smallflower flatsedge; [10]): 0
S. Flatsedge plant response rating (smallflower flatsedge; [11]): 0
S. Flatsedge plant response rating (smallflower flatsedge; [12]): 7
Plant response rating, Wild oats (wild oat; [1]): 7
Wild oats plant response rating (wild oat; [2]): 9
Plant response rating, Wild oats (wild oat; [3]): 3
Plant response rating, Wild oats (wild oat; [4]): 6
Wild oats plant response rating (wild oat; [5]): 10
Wild oats plant response rating (wild oat; [6]): 10
Wild oats plant response rating (wild oat; [7]): 0
Plant response rating, Nutsedge (purple nutsedge; [1]): 3
Plant response rating, Nutsedge (purple nutsedge; [3]): 0
Plant response rating, Nutsedge (purple nutsedge; [4]): 0
Nutsedge plant response rating (purple nutsedge; [5]): 0
Nutsedge plant response rating (purple nutsedge; [6]): 2
Nutsedge plant response rating (purple nutsedge; [7]): 0
Plant response rating, Barnyardgrass (0 to 10 scale, 0 is no effect, 10 is complete control) (bamyardgrass; [9]): 2
Barnyardgrass plant response rating (0 to 10 scale, 0 is no effect, 10 is complete control) (bamyardgrass; [10]): 5
Barnyardgrass plant response rating (bamyardgrass; [11]): 4
Barnyardgrass plant response rating (bamyardgrass; [12]): 9
Plant response rating, Giant foxtail (giant foxtail; [8]): 9
Plant response rating, Giant foxtail (giant foxtail; [1]): 9
Giant foxtail plant response rating (giant foxtail; [2]): 10
Plant response rating, Giant foxtail (giant foxtail; [3]): 10
Plant response rating, Giant foxtail (giant foxtail; [4]): 10
Giant foxtail plant response rating (giant foxtail; [5]): 10
Giant foxtail plant response rating (giant foxtail; [6]): 10
Giant foxtail plant response rating (giant foxtail; [7]): 9
Plant response rating, Ducksalad (0 to 10 scale, 0 is no effect, 10 is complete control) (duck salad; [9]): 0
Ducksalad plant response rating (0 to 10 scale, 0 is no effect, 10 is complete control) (duck salad; [10]): 0
Ducksalad plant response rating (duck salad; [11]): 0
Ducksalad plant response rating (duck salad; [12]): 3
Plant response rating, Velvetleaf (velvetleaf; [1]): 7
Velvetleaf plant response rating (velvetleaf; [2]): 8
Plant response rating, Velvetleaf (velvetleaf; [3]): 2
Plant response rating, Velvetleaf (velvetleaf; [4]): 4
Velvetleaf plant response rating (velvetleaf; [5]): 6
Velvetleaf plant response rating (velvetleaf; [6]): 7
Velvetleaf plant response rating (velvetleaf; [7]): 0
